For one assay, the system named is Target C. The assay can be described thus: RT-qPCR splicing assay panel, Target C canonical junction (CJ) mRNA. Format: cell-based, human. The note with it: Homo sapiens; Table 5 panel; canonical junction qPCR; compound concentration having 50% response in CJ decrease; read-out: Target C IC50 (decrease in CJ mRNA levels). The essentials: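 Read-out is canonical exon-exon junction mRNA quantified by RT-qPCR against a GAPDH, GUSB or PPIA control. Cells (A673 or K562) received compound for 24 h, top final dose 10 uM in an 11-point 3-fold series.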
(Real-time PCR tracks product formation cycle by cycle.)

Another assay concerns MYB mRNA. The assay is described as follows: RT-qPCR splicing assay, MYB canonical junction (CJ) and alternative junction (AJ) mRNA. Format: cell-based, human. The following applies: Homo sapiens; for AC50: increase in MYB alternative junction (AJ) mRNA, read-out: MYB AJ AC50. The essentials:
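A673 cells (normalized to PPIA) or K562 cells (normalized to GAPDH or GUSB) were treated 24 h at 37 °C with an 11-point 3-fold dilution series, top 10 uM, DMSO ≤0.25%. Cell lysates went to one-step RT-qPCR measuring canonical- and alternative-junction MYB or HTT transcripts.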

Setting [1] is: Table 5 panel, canonical junction qPCR, compound concentration having 50% response in CJ decrease, read-out: MYB IC50 (decrease in CJ mRNA levels).
The mark [2] stands for this setting: decrease in MYB canonical junction (CJ) mRNA, RT-qPCR, read-out: MYB CJ IC50.

pIC50: −log10 of the molar value. Like-named read-outs stand apart in the source and are kept apart here.

Broadly, the pIC50 is −log10 of the IC50, conventionally taken in molar units. The term AC50 denotes the concentration at which the activity in the assay is half-maximal. Consider `Cc1cn2nc(-c3ccc4c(=O)n(C5CCNCC5)cnc4c3)nc2c(C)n1` [Compound 287, 7-{6,8-dimethyl-[1,2,4]triazolo[1,5-a]pyrazin-2-yl}-3-(piperidin-4-yl)quinazolin-4-one], for which the pIC50 in the assay with Target C, in the assay on MYB mRNA (setting [1]) and with MYB mRNA (setting [2]) was 6.00 to 7.00 each time. In addition, the AC50 with MYB mRNA (RT-qPCR) was 100 to 1000 nM.

Consider `Cc1cn2nc(-c3ccc4c(=O)n(C5CCN(C)CC5)cnc4c3)nc2c(C)n1` [Compound 288, 7-{6,8-dimethyl-[1,2,4]triazolo[1,5-a]pyrazin-2-yl}1-3-(1-methylpiperidin-4-yl)quinazolin-4-one], for which the pIC50 with Target C, with MYB mRNA (setting [1]) and with MYB mRNA (setting [2]) was 5.00 to 6.00 throughout. For the same compound, the AC50 with MYB mRNA (RT-qPCR) was 1000 to 10000 nM.

In the case of `Cc1cn2nc(-c3ccc4c(=O)n(C5CCN(C)CC5)cnc4c3F)cc(C)c2n1` [Compound 290], the pIC50 in the assay with Target C, in the assay on MYB mRNA (setting [1]) and in the assay on MYB mRNA (setting [2]) was 6.00 to 7.00 in each case. Moreover, the AC50 with MYB mRNA (RT-qPCR) fell in the range of 100 to 1000 nM.

For the compound `Cc1cn2cc(-c3ccc4c(=O)n(C5CCNCC5)cnc4c3)cc(Cl)c2n1` [Compound 291], the pIC50 with Target C was 6.00 to 7.00; in the assay on MYB mRNA (setting [1]), 6.00 to 7.00; in the assay with MYB mRNA (setting [2]), over 7.00. The AC50 with MYB mRNA (RT-qPCR) is 100 to 1000 nM.

For the compound `Cc1cn2cc(-c3ccc4c(=O)n(C5CCNCC5)cnc4c3)cc(C)c2n1` [Compound 292], the negative-log IC50 (pIC50) is 5.00 to 6.00 in the assay on Target C, 6.00 to 7.00 with MYB mRNA (setting [1]) and 6.00 to 7.00 with MYB mRNA (setting [2]). For the same compound, the AC50 in the assay on MYB mRNA (RT-qPCR) fell in the range of 100 to 1000 nM.

Consider `Cc1cn2cc(-c3ccc4c(=O)n([C@@H]5CCN[C@@H](C)C5)cnc4c3)cc(F)c2n1` [Compound 293], for which the negative-log IC50 (pIC50) was 5.00 to 6.00 in the assay on Target C, 6.00 to 7.00 in the assay on MYB mRNA (setting [1]) and 6.00 to 7.00 with MYB mRNA (setting [2]). The AC50 in the assay on MYB mRNA (RT-qPCR) was 100 to 1000 nM.

For the compound `Cc1cn2cc(-c3ccc4c(=O)n(C5CCN[C@@H](C)C5)cnc4c3)cc(F)c2n1` (stereo partly shown) [Compound 294], the negative logarithm of the IC50 (pIC50) was 5.00 to 6.00 in the assay with Target C, 6.00 to 7.00 in the assay on MYB mRNA (setting [1]) and 6.00 to 7.00 with MYB mRNA (setting [2]). Further, the AC50 in the assay on MYB mRNA (RT-qPCR) lay in the range of 100 to 1000 nM.

As to `Cc1cn2cc(-c3ccc4c(=O)n([C@@H]5CCN[C@H](C)C5)cnc4c3)cc(F)c2n1` [Compound 295], the pIC50 in the assay with Target C was under 5.00; in the assay on MYB mRNA (setting [1]), 6.00 to 7.00; with MYB mRNA (setting [2]) it was 6.00 to 7.00. Besides, the AC50 in the assay with MYB mRNA (RT-qPCR) is 100 to 1000 nM.

`Cc1cn2cc(-c3ccc4c(=O)n([C@H]5CCN[C@H](C)C5)cnc4c3)cc(F)c2n1` [Compound 296]: the results for the pIC50 with Target C, in the assay with MYB mRNA (setting [1]) and in the assay on MYB mRNA (setting [2]) were 6.00 to 7.00, over 7.00 and over 7.00, respectively. The AC50 in the assay on MYB mRNA (RT-qPCR) is under 100 nM.

As for `Cc1cn2cc(-c3ccc4c(=O)n(C5CCNCC5)cnc4c3)ncc2n1` [Compound 297], the pIC50 is 5.00 to 6.00 in the assay on Target C, 6.00 to 7.00 with MYB mRNA (setting [1]) and 6.00 to 7.00 in the assay on MYB mRNA (setting [2]). Further, the AC50 in the assay on MYB mRNA (RT-qPCR) lay within 100 to 1000 nM.

For the compound `Cc1cn2nc(-c3ccc4c(=O)n(C5CCNCC5)cnc4c3)cc2c(C)n1` [Compound 298], the values for the pIC50 in the assay with Target C, in the assay on MYB mRNA (setting [1]) and with MYB mRNA (setting [2]) were 5.00 to 6.00, 6.00 to 7.00 and 6.00 to 7.00, respectively. The AC50 in the assay on MYB mRNA (RT-qPCR) was 100 to 1000 nM.

Turning to `CN1CCC(n2cnc3cc(-c4cn[nH]c4)ccc3c2=O)CC1` [Compound 299], the pIC50 with Target C, in the assay with MYB mRNA (setting [1]) and in the assay on MYB mRNA (setting [2]) was under 5.00 in each case. Moreover, the half-maximal activity concentration (AC50) in the assay on MYB mRNA (RT-qPCR) was over 10000 nM.

As for `Cc1nc2c(F)cc(-c3ccc4c(=O)n(C5CCN(C)CC5)cnc4c3)cc2o1` [Compound 300], the pIC50 with Target C was 5.00 to 6.00; in the assay with MYB mRNA (setting [1]), 5.00 to 6.00; in the assay on MYB mRNA (setting [2]), 6.00 to 7.00. Moreover, the AC50 with MYB mRNA (RT-qPCR) was in the range of 1000 to 10000 nM.

For the compound `Cc1nc2c(F)cc(-c3ccc4c(=O)n(C5CCN(C)CC5)cnc4c3)cc2s1` [Compound 301], the pIC50 in the assay with Target C, in the assay with MYB mRNA (setting [1]) and with MYB mRNA (setting [2]) was 5.00 to 6.00 in each case. The AC50 in the assay on MYB mRNA (RT-qPCR) is 1000 to 10000 nM.

With `Cc1cn2cc(-c3ccc4c(=O)n(C5CCN(C)CC5)cnc4c3)nc2c(C)n1` [Compound 302], the pIC50 in the assay on Target C, with MYB mRNA (setting [1]) and in the assay with MYB mRNA (setting [2]) was 5.00 to 6.00 in each case. For the same compound, the AC50 with MYB mRNA (RT-qPCR) was 1000 to 10000 nM.

Regarding `Cc1cn2nc(-c3ccc4c(=O)n(C5CCN(C)CC5)cnc4c3)cc2c(C)n1` [Compound 303], the pIC50 with Target C, with MYB mRNA (setting [1]) and in the assay with MYB mRNA (setting [2]) was 5.00 to 6.00 throughout. In addition, the AC50 with MYB mRNA (RT-qPCR) lay within 1000 to 10000 nM.

For the compound `CC[C@@H]1C[C@H](n2ncc3cc(-c4cc(C)c5nc(C)cn5n4)ccc3c2=O)CCN1` [Compound 304], the negative-log IC50 (pIC50) was 5.00 to 6.00 in the assay with Target C, 6.00 to 7.00 with MYB mRNA (setting [1]) and 6.00 to 7.00 in the assay on MYB mRNA (setting [2]). For the same compound, the AC50 in the assay on MYB mRNA (RT-qPCR) lay in the range of 100 to 1000 nM.

In the case of `Cc1cn2cc(-c3ccc4c(=O)n(C5CCNCC5)cnc4c3)cc(C(F)(F)F)c2n1` [Compound 306], the results for the pIC50 in the assay on Target C, with MYB mRNA (setting [1]) and in the assay on MYB mRNA (setting [2]) were 5.00 to 6.00, 5.00 to 6.00 and under 5.00, respectively. Moreover, the AC50 in the assay with MYB mRNA (RT-qPCR) is 1000 to 10000 nM.

As for `Cc1cn2cc(-c3ccc4c(=O)n(C5CCN(C)CC5)cnc4c3)ncc2n1` [Compound 308], the pIC50 with Target C, in the assay with MYB mRNA (setting [1]) and in the assay with MYB mRNA (setting [2]) was 5.00 to 6.00 throughout. In addition, the AC50 in the assay on MYB mRNA (RT-qPCR) lay in the range of 1000 to 10000 nM.

Take `Cc1cn2nc(-c3ccc4c(=O)n(C5CCN(C)CC5)ccc4c3)cc(C)c2n1` [Compound 310]: the pIC50 with Target C was 6.00 to 7.00; in the assay on MYB mRNA (setting [1]), over 7.00; with MYB mRNA (setting [2]), over 7.00. For the same compound, in the assay with MYB mRNA (RT-qPCR), the AC50 is under 100 nM.

As to `Cc1cc(-c2cnc3c(=O)n(C4CCNCC4)cnc3c2)cc2cn(C)nc12` [Compound 311], the pIC50 in the assay with Target C, in the assay on MYB mRNA (setting [1]) and with MYB mRNA (setting [2]) was 5.00 to 6.00 each time. In addition, the AC50 in the assay on MYB mRNA (RT-qPCR) fell in the range of 1000 to 10000 nM.

Consider `Cc1cn2nc(-c3cc(F)c4c(=O)n(C5CCNC6(CC6)C5)ncc4c3)cc(C)c2n1` (stereo not shown) [Compound 312], for which the pIC50 in the assay on Target C, in the assay with MYB mRNA (setting [1]) and in the assay on MYB mRNA (setting [2]) was over 7.00 throughout. The AC50 with MYB mRNA (RT-qPCR) is under 100 nM.

`Cn1cc2cc(-c3cc(F)c4c(=O)n(C5CCNCC5)cnc4c3)cc(F)c2n1` [Compound 314]: the pIC50 in the assay with Target C is under 5.00; with MYB mRNA (setting [1]), 5.00 to 6.00; in the assay on MYB mRNA (setting [2]), 5.00 to 6.00. Further, in the assay on MYB mRNA (RT-qPCR), the AC50 lay within 1000 to 10000 nM.

For `Cn1cc2cc(-c3cc(F)c4c(=O)n(C5CCNCC5)cnc4c3)c(F)cc2n1` [Compound 315], the pIC50 was 5.00 to 6.00 in the assay with Target C, 6.00 to 7.00 with MYB mRNA (setting [1]) and 6.00 to 7.00 in the assay with MYB mRNA (setting [2]). Further, the AC50 with MYB mRNA (RT-qPCR) lay within 100 to 1000 nM.

In the case of `Cn1cc2cc(-c3cc(F)c4c(=O)n(C5CCNCC5)cnc4c3)cc(C#N)c2n1` [Compound 316], the pIC50 with Target C was 6.00 to 7.00; in the assay on MYB mRNA (setting [1]), over 7.00; with MYB mRNA (setting [2]) it was over 7.00. In addition, the AC50 in the assay with MYB mRNA (RT-qPCR) was under 100 nM.

Take `Cc1cn2cc(-c3cc(F)c4c(=O)n(C5CCNCC5)cnc4c3)cc(C)c2n1` [Compound 317]: the figures for the pIC50 in the assay on Target C, in the assay with MYB mRNA (setting [1]) and with MYB mRNA (setting [2]) were 6.00 to 7.00, over 7.00 and 6.00 to 7.00, respectively. For the same compound, in the assay on MYB mRNA (RT-qPCR), the half-maximal activity concentration (AC50) is under 100 nM.

`Cc1cn2nc(-c3cc(F)c4c(=O)n(C5CCNCC5)cnc4c3)cc2c(C)n1` [Compound 318]: the negative-log IC50 (pIC50) with Target C was 6.00 to 7.00; in the assay on MYB mRNA (setting [1]), over 7.00; with MYB mRNA (setting [2]), over 7.00. Also, in the assay with MYB mRNA (RT-qPCR), the AC50 is under 100 nM.

Consider `Cc1cn2cc(-c3cc(F)c4c(=O)n(C5CCNCC5)cnc4c3)nc2c(C)n1` [Compound 319], for which the pIC50 in the assay on Target C was 5.00 to 6.00; in the assay with MYB mRNA (setting [1]), 6.00 to 7.00; in the assay on MYB mRNA (setting [2]) it was 5.00 to 6.00. For the same compound, the AC50 with MYB mRNA (RT-qPCR) lay within 100 to 1000 nM.

For the origin of these results see patent US20250332173A1, “COMPOUNDS AND METHODS FOR MODULATING NUCLEIC ACID SPLICING” (REMIX THERAPEUTICS INC., priority 2021, published 2025).
